The record followed here is patent publication US20250368628A1, “METHODS AND COMPOUNDS FOR MODULATING INHERITED GENETIC DISEASES” (Design Therapeutics, Inc., priority 2022, published 2025).

Experiment [1] has as its system Myotonic Dystrophy 1 affected patient fibroblasts (Coriel GM04602; 1600 CTG repeats). As to the kind of experiment: DM1 foci reduction assay (EC50 assay; CAG10-Cy3 FISH, foci per nucleus). It counts as cell-based. As to conditions: Homo sapiens, Fibroblast; DM1 patient fibroblasts, 48 h treatment, foci per nucleus; read-out: DM1 EC50, 48 h. The procedure, abridged:
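GM04602 DM1 patient fibroblasts (1600 CTG repeats) seeded 24 h, then treated 48 h at 37 °C with an 8-point 1:3 dose series from 3 μM. Cells PFA-fixed, ethanol-permeabilized and hybridized overnight with 5 nM CAG10-Cy3 probe, DAPI counterstained. Imaged at 20×, 4 fields per well, as average foci per nucleus.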

Another experiment relates to F35T cells. As to the kind of experiment: Foci reduction in FECD (CAG10-Cy3 FISH, foci per nucleus). In kind it is cell-based. The following applies: F35T cells, 48 h treatment, foci per nucleus; read-out: FECD EC50, 48 h. The procedure, abridged: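 F35T cells, 5000 per well, were treated for 48 h at 37 °C, 5% CO2 in an 8-point dose response. Cells were then fixed in 4% PFA, permeabilized in 70% ethanol and hybridized overnight at 37 °C with a CAG10-Cy3 probe in 30% formamide/2×SSC. After DAPI staining, imaging gave foci per nucleus.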

As a reminder, the EC50 is the concentration needed to bring the measured effect to its halfway point.

Take `CCCNC(=O)CCNC(=O)c1nc(NC(=O)c2cc(NC(=O)CCNC(=O)c3nc(NC(=O)CCCNC(=O)c4cc(NC(=O)c5nc(NC(=O)CCNC(=O)c6cc(NC(=O)c7nc(NC=O)cn7C)cn6C)cn5C)cn4C)cn3C)cn2C)cn1C` [Compound B-324]: the results for the EC50 (in experiment [1]; in the experiment with F35T cells) were 100 to 500 nM and less than 100 nM, respectively.

On to `CCCNC(=O)CCNC(=O)c1nc(NC(=O)c2cc(NC(=O)CCNC(=O)c3nc(NC(=O)CCCNC(=O)c4cc(NC(=O)c5nc(NC(=O)CCNC(=O)c6cc(NC(=O)c7nc(N=C(N)N)cn7C)cn6C)cn5C)cn4C)cn3C)cn2C)cn1C` [Compound B-325], for which the EC50 is 500 to 1000 nM in experiment [1] and more than 1000 nM in the experiment with F35T cells.

Turning to `CCCNC(=O)CCNC(=O)c1nc(NC(=O)c2cc(NC(=O)CCNC(=O)c3nc(NC(=O)CCCNC(=O)c4cc(NC(=O)c5nc(NC(=O)CCNC(=O)c6cc(NC(=O)c7nc(N=C(N(C)C)N(C)C)cn7C)cn6C)cn5C)cn4C)cn3C)cn2C)cn1C` [Compound B-326], the EC50 was 100 to 500 nM in experiment [1] and more than 1000 nM in the experiment with F35T cells.

Take `CCCNC(=O)c1nc(NC(=O)c2cc(NC(=O)CCNC(=O)c3nc(NC(=O)CCCNC(=O)c4cc(NC(=O)c5nc(NC(=O)CCNC(=O)c6cc(NC(=O)c7nc(NC=O)cn7C)cn6C)cn5C)cn4C)cn3C)cn2C)cn1C` [Compound B-327]: the EC50 (in experiment [1]; in the experiment on F35T cells) was less than 100 nM each time.

As to `CCCNC(=O)c1nc(NC(=O)c2cc(NC(=O)CCNC(=O)c3nc(NC(=O)CCCNC(=O)c4cc(NC(=O)c5nc(NC(=O)CCNC(=O)c6cc(NC(=O)c7nc(N=C(N)N)cn7C)cn6C)cn5C)cn4C)cn3C)cn2C)cn1C` [Compound B-328], the EC50 (in experiment [1]; in the experiment with F35T cells) was 100 to 500 nM in each case.

In the case of `Cn1cc(NC(=O)c2nc(NC(=O)CCNC(=O)c3cc(NC(=O)c4nccn4C)cn3C)cn2C)cc1C(=O)NCCCC(=O)Nc1cn(C)c(C(=O)NCCC(=O)Nc2cc(C(=O)Nc3cn(C)c(C(=O)NCCCOCOP(=O)(O)O)n3)n(C)c2)n1` [Compound B-332], the EC50 was 100 to 500 nM in experiment [1] and less than 100 nM with F35T cells.

Consider `Cn1cc(NC(=O)c2nc(NC(=O)CCNC(=O)c3cc(NC(=O)c4nccn4C)cn3C)cn2C)cc1C(=O)NCCCC(=O)Nc1cn(C)c(C(=O)NCCC(=O)Nc2cc(C(=O)Nc3cn(C)c(C(=O)NCCC(=O)NC(CO)CO)n3)n(C)c2)n1` [Compound B-333], for which the EC50 lay within 500 to 1000 nM in experiment [1] and 100 to 500 nM with F35T cells.

As to `Cn1cc(NC(=O)c2nc(NC(=O)CCNC(=O)c3cc(NC(=O)c4nccn4C)cn3C)cn2C)cc1C(=O)NCCCC(=O)Nc1cn(C)c(C(=O)NCCC(=O)Nc2cc(C(=O)Nc3cn(C)c(C(=O)NCCCNC(CO)CO)n3)n(C)c2)n1` [Compound B-335], the EC50 (in experiment [1]; in the experiment with F35T cells) was 100 to 500 nM each time.

On to `Cn1cc(NC(=O)c2nc(NC(=O)CCNC(=O)c3cc(NC(=O)c4nccn4C)cn3C)cn2C)cc1C(=O)NCCCC(=O)Nc1cn(C)c(C(=O)NCCC(=O)Nc2cc(C(=O)Nc3cn(C)c(C(=O)NCCCCCCCN)n3)n(C)c2)n1` [Compound B-337], for which the EC50 in experiment [1] was 100 to 500 nM; with F35T cells, less than 100 nM.

Take `COC(=O)c1cccc(C#CCCCN(C)CCCNC(=O)c2nc(NC(=O)c3cc(NC(=O)CCNC(=O)c4nc(NC(=O)CCCNC(=O)c5cc(NC(=O)c6nc(NC(=O)CCNC(=O)c7cc(NC(=O)c8nccn8C)cn7C)cn6C)cn5C)cn4C)cn3C)cn2C)c1` [Compound B-341]: the EC50 (in experiment [1]; in the experiment on F35T cells) was less than 100 nM each time.

Take `COC(=O)c1cccc(NCCCCNC(=O)c2nc(NC(=O)c3cc(NC(=O)CCNC(=O)c4nc(NC(=O)CCCNC(=O)c5cc(NC(=O)c6nc(NC(=O)CCNC(=O)c7cc(NC(=O)c8nccn8C)cn7C)cn6C)cn5C)cn4C)cn3C)cn2C)c1` [Compound B-343]: the EC50 (in experiment [1]; in the experiment on F35T cells) was less than 100 nM each time.

Take `Cn1cc(NC(=O)c2nc(NC(=O)CCNC(=O)c3cc(NC(=O)c4nccn4C)cn3C)cn2C)cc1C(=O)NCCCC(=O)Nc1cn(C)c(C(=O)NCCC(=O)Nc2cc(C(=O)Nc3cn(C)c(C(=O)NCCC(=O)N4CCC(C#CC5=CCN(C(=O)OCC6c7ccccc7-c7ccccc76)CC5)CC4)n3)n(C)c2)n1` [Compound B-345]: the EC50 in experiment [1] is more than 1000 nM; in the experiment with F35T cells it was 500 to 1000 nM.

On to `Cn1cc(NC(=O)c2nc(NC(=O)CCNC(=O)c3cc(NC(=O)c4nccn4C)cn3C)cn2C)cc1C(=O)NCCCC(=O)Nc1cn(C)c(C(=O)NCCC(=O)Nc2cc(C(=O)Nc3cn(C)c(C(=O)NCCC(=O)N4CCC(C#CC5=CCNCC5)CC4)n3)n(C)c2)n1` [Compound B-346], for which the 50% effective concentration (EC50) is 100 to 500 nM in experiment [1] and less than 100 nM in the experiment on F35T cells.

On to `Cn1cc(NC(=O)c2nc(NC(=O)CCNC(=O)c3cc(NC(=O)c4nccn4C)cn3C)cn2C)cc1C(=O)NCCCC(=O)Nc1cn(C)c(C(=O)NCCC(=O)Nc2cc(C(=O)Nc3cn(C)c(C(=O)NCCC(=O)N4CC=C(C#CC5CCN(C(=O)OC(C)(C)C)CC5)CC4)n3)n(C)c2)n1` [Compound B-347], for which the half-maximal effective concentration (EC50) was less than 100 nM in experiment [1] and 100 to 500 nM with F35T cells.

In the case of `Cn1cc(NC(=O)c2nc(NC(=O)CCNC(=O)c3cc(NC(=O)c4nccn4C)cn3C)cn2C)cc1C(=O)NCCCC(=O)Nc1cn(C)c(C(=O)NCCC(=O)Nc2cc(C(=O)Nc3cn(C)c(C(=O)NCCC(=O)N4CC=C(C#CC5CCNCC5)CC4)n3)n(C)c2)n1` [Compound B-348], the EC50 was 500 to 1000 nM in experiment [1] and 100 to 500 nM in the experiment with F35T cells.

As for `COCCOCCOCCOCCOCCOCCC(=O)NCCCCCCn1cc(NC(=O)c2nc(NC(=O)CCNC(=O)c3cc(NC(=O)c4nccn4C)cn3C)cn2C)cc1C(=O)NCCCC(=O)Nc1cn(C)c(C(=O)NCCC(=O)Nc2cc(C(=O)Nc3cn(C)c(C(=O)NCCC(=O)N4CCC(C#CC#CC5CCN(C(=O)OC(C)(C)C)CC5)CC4)n3)n(C)c2)n1` [Compound B-351], the figures for the EC50 (in experiment [1]; in the experiment on F35T cells) were more than 1000 nM and less than 100 nM, respectively.

On to `CC(=O)NCCCCCCn1cc(NC(=O)c2nc(NC(=O)CCNC(=O)c3cc(NC(=O)c4nccn4C)cn3C)cn2C)cc1C(=O)NCCCC(=O)Nc1cn(C)c(C(=O)NCCC(=O)Nc2cc(C(=O)Nc3cn(C)c(C(=O)NCCC(=O)N4CCC(C#CC#CC5CCN(C(=O)OC(C)(C)C)CC5)CC4)n3)n(C)c2)n1` [Compound B-356], for which the concentration for a half-maximal effect (EC50) in experiment [1] was more than 1000 nM; with F35T cells, 500 to 1000 nM.

Consider `CN(CCCN)CCCNC(=O)c1cc(NC(=O)CCNC(=O)c2nc(NC(=O)CCCNC(=O)c3cc(NC(=O)c4nc(NC(=O)CCNC(=O)c5cc(NC(=O)c6nccn6C)cn5C)cn4C)cn3CCCCCCN=[N+]=[N-])cn2C)cn1C` [Compound B-358], for which the EC50 (in experiment [1]; in the experiment on F35T cells) was more than 1000 nM throughout.

`CN(CCCNC(=O)c1cccc(C(=O)OC(C)(C)C)c1)CCCNC(=O)c1cc(NC(=O)CCNC(=O)c2nc(NC(=O)CCCNC(=O)c3cc(NC(=O)c4nc(NC(=O)CCNC(=O)c5cc(NC(=O)c6nccn6C)cn5C)cn4C)cn3CCCCCCN=[N+]=[N-])cn2C)cn1C` [Compound B-359]: the EC50 (in experiment [1]; in the experiment with F35T cells) was more than 1000 nM throughout.

With `COC(=O)c1cccc(C#CCNCCCNC(=O)c2nc(NC(=O)c3cc(NC(=O)CCNC(=O)c4nc(NC(=O)CCCNC(=O)c5cc(NC(=O)c6nc(NC(=O)CCNC(=O)c7cc(NC(=O)c8nccn8C)cn7C)cn6C)cn5C)cn4C)cn3C)cn2C)c1` [Compound B-361], the EC50 (in experiment [1]; in the experiment on F35T cells) was less than 100 nM in each case.

As to `COC(=O)c1ccc(C#CCNCCCNC(=O)c2nc(NC(=O)c3cc(NC(=O)CCNC(=O)c4nc(NC(=O)CCCNC(=O)c5cc(NC(=O)c6nc(NC(=O)CCNC(=O)c7cc(NC(=O)c8nccn8C)cn7C)cn6C)cn5C)cn4C)cn3C)cn2C)cc1` [Compound B-362], the EC50 (in experiment [1]; with F35T cells) was less than 100 nM in each case.

On to `CN(CCCNC(=O)OC(C)(C)C)CCCNC(=O)c1nc(NC(=O)c2cc(NC(=O)CCNC(=O)c3nc(NC(=O)CCCNC(=O)c4cc(NC(=O)c5nc(NC(=O)CCNC(=O)c6cc(NC(=O)c7nccn7C)cn6C)cn5C)cn4CCCCCCN=[N+]=[N-])cn3C)cn2C)cn1C` [Compound B-363], for which the EC50 (in experiment [1]; in the experiment on F35T cells) was less than 100 nM in each case.

Take `CN(CCCN)CCCNC(=O)c1nc(NC(=O)c2cc(NC(=O)CCNC(=O)c3nc(NC(=O)CCCNC(=O)c4cc(NC(=O)c5nc(NC(=O)CCNC(=O)c6cc(NC(=O)c7nccn7C)cn6C)cn5C)cn4CCCCCCN=[N+]=[N-])cn3C)cn2C)cn1C` [Compound B-364]: the EC50 was 100 to 500 nM in experiment [1] and more than 1000 nM in the experiment with F35T cells.

As to `CN(CCCNC(=O)c1cccc(C(=O)OC(C)(C)C)c1)CCCNC(=O)c1nc(NC(=O)c2cc(NC(=O)CCNC(=O)c3nc(NC(=O)CCCNC(=O)c4cc(NC(=O)c5nc(NC(=O)CCNC(=O)c6cc(NC(=O)c7nccn7C)cn6C)cn5C)cn4CCCCCCN=[N+]=[N-])cn3C)cn2C)cn1C` [Compound B-365], the results for the EC50 (in experiment [1]; in the experiment with F35T cells) were less than 100 nM and 100 to 500 nM, respectively.

Take `CCCNC(=O)c1cc(NC(=O)CCNC(=O)c2nc(NC(=O)[C@H](N)CCNC(=O)c3cc(NC(=O)c4nc(NC(=O)CCNC(=O)c5cc(NC(=O)c6nccn6C)cn5C)cn4C)cn3C)cn2C)cn1C` [Compound B-366]: the EC50 (in experiment [1]; with F35T cells) was more than 1000 nM in each case.

Regarding `CN(C)CCCNC(=O)c1cc(NC(=O)CCNC(=O)c2nc(NC(=O)[C@H](N)CCNC(=O)c3cc(NC(=O)c4nc(NC(=O)CCNC(=O)c5cc(NC(=O)c6nccn6C)cn5C)cn4C)cn3C)cn2C)cn1C` [Compound B-367], the EC50 (in experiment [1]; with F35T cells) was more than 1000 nM throughout.

`CN(CCCNC(=O)c1cccc(C(=O)O)c1)CCCNC(=O)c1cc(NC(=O)CCNC(=O)c2nc(NC(=O)[C@H](N)CCNC(=O)c3cc(NC(=O)c4nc(NC(=O)CCNC(=O)c5cc(NC(=O)c6nccn6C)cn5C)cn4C)cn3C)cn2C)cn1C` [Compound B-368]: the EC50 (in experiment [1]; in the experiment with F35T cells) was more than 1000 nM in each case.
